Key:
Mhp1 = biological target: T1, Mhp1 (Microbacterium maritypicum, UniProt D6R8X8); assay: tryptophan fluorescence quenching titration; type: binding
T1 construct: gene hyuP; His-tagged (Ni-NTA, HisProbe blot), expressed in E. coli inner membranes, solubilized in DDM or trapped in A8-35
T1 sequence (D6R8X8 1-489): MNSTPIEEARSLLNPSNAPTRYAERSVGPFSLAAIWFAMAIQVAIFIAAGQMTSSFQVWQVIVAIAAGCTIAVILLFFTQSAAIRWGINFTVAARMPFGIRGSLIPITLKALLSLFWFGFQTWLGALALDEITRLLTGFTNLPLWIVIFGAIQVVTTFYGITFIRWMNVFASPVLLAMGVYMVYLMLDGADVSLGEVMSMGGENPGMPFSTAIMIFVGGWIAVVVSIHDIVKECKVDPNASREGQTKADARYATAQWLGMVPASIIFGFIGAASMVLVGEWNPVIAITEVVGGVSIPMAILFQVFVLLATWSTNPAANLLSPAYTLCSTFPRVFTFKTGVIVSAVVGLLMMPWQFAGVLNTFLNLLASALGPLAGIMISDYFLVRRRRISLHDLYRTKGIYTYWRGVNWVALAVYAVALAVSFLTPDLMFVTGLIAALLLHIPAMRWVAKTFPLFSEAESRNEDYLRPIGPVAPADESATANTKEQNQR
Experimental: tryptophan fluorescence quenching titration on Mhp1 | The activity of Mhp1 was evaluated by monitoring binding to L-benzylhydantoin, a known ligand

GalP = biological target: T2, GalP (Escherichia coli, UniProt P0AEP1); assay: tryptophan fluorescence quenching titration; type: binding
T2 construct: His-tagged (Ni-NTA, HisProbe blot), expressed in E. coli inner membranes, solubilized in DDM or trapped in A8-35
T2 sequence (P0AEP1 1-464): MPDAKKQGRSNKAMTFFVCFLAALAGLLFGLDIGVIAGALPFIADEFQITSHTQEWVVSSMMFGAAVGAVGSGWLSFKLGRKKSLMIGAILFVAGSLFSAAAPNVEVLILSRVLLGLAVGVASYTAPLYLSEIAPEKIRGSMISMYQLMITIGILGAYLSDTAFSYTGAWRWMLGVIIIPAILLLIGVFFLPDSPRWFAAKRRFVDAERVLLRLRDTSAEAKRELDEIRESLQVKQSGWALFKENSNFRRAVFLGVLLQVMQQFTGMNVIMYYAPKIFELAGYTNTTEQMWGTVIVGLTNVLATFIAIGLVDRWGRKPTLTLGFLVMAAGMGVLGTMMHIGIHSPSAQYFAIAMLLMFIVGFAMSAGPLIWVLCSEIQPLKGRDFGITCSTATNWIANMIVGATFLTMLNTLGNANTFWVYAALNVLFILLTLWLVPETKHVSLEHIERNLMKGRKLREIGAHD
Experimental: tryptophan fluorescence quenching titration on GalP | GalP activity was assessed by monitoring binding to the small molecule inhibitor forskolin

| Compound | Kd (Mhp1) [µM] | Kd (GalP) [µM] |
| --- | --- | --- |
| O=C1NC(=O)[C@H](Cc2ccccc2)N1 [L-benzylhydantoin] | 17.6 ± 1.8 |  |
| C=C[C@@]1(C)CC(=O)[C@]2(O)[C@@]3(C)[C@@H](O)CCC(C)(C)[C@@H]3[C@H](O)[C@H](OC(C)=O)[C@@]2(C)O1 [forskolin] |  | 63 ± 19 |
